Test results published in ChEMBL document CHEMBL5244243, “Novel strategies targeting bromodomain-containing protein 4 (BRD4) for cancer drug discovery” (Eur J Med Chem, 2020).
Each block holds one compound with its values, some of them ahead of it.

Legend:
[1] = target: T1, Bromodomain-containing protein 4 (Homo sapiens, UniProt O60885); experiment: Inhibition of BRD4 (unknown origin) BD1 domain
[2] = target: Histone deacetylase; experiment: Inhibition of HDAC (unknown origin); assay type: protein assay, Homo sapiens
[3] = target: T1, Bromodomain-containing protein 4; experiment: Inhibition of BRD4 (unknown origin) BD1 domain incubated for 18 hrs
[4] = test system: MV4-11; experiment: Antitumor activity against human MV4-11 cells xenografted in mouse assessed as TGI at 1 mg/kg, po measured after 7 days relative to control; assay type: functional; details: MV4-11, 168 h, time 7 day, read-out: TGI
[5] = target: T1, Bromodomain-containing protein 4; experiment: Induction of BRD4 (unknown origin) degradation at 100 nM relative to control
[6] = target: T1, Bromodomain-containing protein 4; experiment: Induction of BRD4 degradation in human MV4-11 cells at 100 nM measured after 18 hrs relative to control; assay type: cell-based
[7] = target: T1, Bromodomain-containing protein 4; experiment: Inhibition of human full length BRD4

Activity [5]: 90%
Structure (SMILES): Cc1ncsc1-c1ccc(CNC(=O)[C@@H]2C[C@@H](O)CN2C(=O)C(NC(=O)COCCOCCOCCNC(=O)C[C@@H]2N=C(c3ccc(Cl)cc3)c3c(sc(C)c3C)-n3c(C)nnc32)C(C)(C)C)cc1 (some centres not stated)

Activity [6]: 87%
Structure (SMILES): Cc1sc2c(c1C)C(c1ccc(Cl)cc1)=N[C@@H](CC(=O)NCCCCNC(=O)COc1cccc3c1C(=O)N(C1CCC(=O)NC1=O)C3=O)c1nnc(C)n1-2 (some centres not stated)

Further lines, the compound ahead of its results:

Structure (SMILES): Cc1sc2c(c1C)C(c1ccc(Cl)cc1)=N[C@@H](CC(=O)Nc1ccc(C(=O)NO)cc1)c1nnc(C)n1-2
IC50 [1]: 11 nM
IC50 [2]: 21 nM

Structure (SMILES): COc1nnc2ccc(N3CCC(c4ccc(OCCN5CCN(C)C(=O)[C@H]5C)cc4)CC3)nn12 [AZD-5153]
IC50 [3]: 1.6 nM
inhibition in vivo at 1 mg/kg [4]: 72%

Structure (SMILES): Cc1noc(C)c1-c1ccc2c(c1)c(Cc1ccc(F)cc1)cn2CCCCCCC(=O)NO
IC50 [7]: 5 nM
